PMC4076021 (ACS chemical biology, 2014)
Read-outs that look alike come from different tables or passages of the source.

Experiments:
GST-LSD1 [1] = target: T1, GST-LSD1 (Homo sapiens, UniProt O60341); assay: biochemical; format: biochemical; settings: for kinact/KI: read-out: kinact/Ki(inact)
H3K4Me2 in LNCaP cells = assay: Western blot of histone H3 methylation in LNCaP cells; format: cell-based
GST-LSD1 [2] = target: T1, GST-LSD1; assay: MassSQUIRM LSD1 inhibition assay; format: biochemical; settings: 50 µM inhibitor, 30 min, 215 nM GST-LSD1
[3] = tested on: immature primary cortical neurons; assay: Oxidative toxicity; format: cell-based, rat; settings: 0.5 µM, 5 mM HCA, MTT
H3K4Me2 in H460 cells = assay: Western blot of H3K4Me2 in H460 cells; format: cell-based; settings: H460, 48 h, compared with LNCaP
H460 cells [4] = tested on: H460 cells
H460 cells [5] = assay: [3H] thymidine incorporation proliferation assay in H460 cells; format: cell-based; settings: H460, 48 h, 80 µM
GST-LSD1 [6] = target: T1, GST-LSD1; settings: cited from earlier work
[7] = mechanism-based inactivation, extrapolated to zero substrate

With `NNCCCOc1ccccc1` [10b] the KI (inactivation) (GST-LSD1 [1]) was 12 ± 2.1 µM, the kinact (GST-LSD1 [1]) was 0.00367 s⁻¹ and the kinact/KI (GST-LSD1 [1]) was 300 M⁻¹ s⁻¹.

In the case of `Cl.Cl.NNCCc1ccc(NC(=O)CCCc2ccccc2)cc1` [12d], the “H3K4Me2 band density time course (in words)” value (H3K4Me2 in LNCaP cells; 10 µM, normalized to vehicle, 3 biological replicates) is reported as “Statistically significant increases were observed at 6, 24, 48, 72, and 96 h but not at 30 min and 12 h”, the “changes in H3K4Me1, H3K4Me3, unmethylated H3K4, H3K9Me2, H3K9Ac, H3K36Me3 (in words)” value (H3K4Me2 in LNCaP cells; 0.4–10 µM, 48 h) is reported as “no significant reproducible changes” and the “effect on LSD1 protein levels (in words)” value (H3K4Me2 in LNCaP cells; 0.4–10 µM, 48 h) is reported as “no discernible effect”. For the same compound, the “H3K4Me2 band density (in words)” value (H3K4Me2 in LNCaP cells; 48 h, 3 µM and 10 µM, three biological replicates) was “Statistically significant increases”, the “LSD1 inhibition in MassSQUIRM assay (in words)” value (GST-LSD1 [2]) was “very substantial LSD1 inhibition” and the “survival of neurons after HCA treatment (in words)” value [3] was “significantly enhanced survival”. The “effect on H3K4Me2 levels (in words)” value (H3K4Me2 in H460 cells) was “comparable dose-response effects”.

`NNCCc1ccc(NC(=O)Cc2ccccc2)cc1` [12b] showed a KI (inactivation) (GST-LSD1 [1]) of 0.37 ± 0.033 µM, a kinact (GST-LSD1 [1]) of 0.00333 s⁻¹ and a kinact/KI (GST-LSD1 [1]) of 9000 M⁻¹ s⁻¹.

With `CN(C)NCCc1ccccc1` [9b] the IC50 (GST-LSD1 [1]) was greater than 100 µM.

In the case of `Nc1ccccc1NC(=O)c1ccc(CNc2nccc(-c3cccnc3)n2)cc1` [MGCD0103], the “combination effect on inhibition of H460 cell proliferation (in words)” value (shortened to “combination effect on inhibition”) (H460 cells [4]) is reported as “moderate antagonism” and the “combination index (CI)” value (H460 cells [4]) is reported as greater than 1.

In the case of `NNCCc1ccc(NC(=O)CCCc2ccc(Cl)cc2)cc1` [12f], the kinact (GST-LSD1 [1]) is reported as 0.00283 s⁻¹ and the kinact/KI (GST-LSD1 [1]) is reported as 18300 M⁻¹ s⁻¹.

With `Cc1[nH]c2ccccc2c1CCNCc1ccc(/C=C/C(=O)NO)cc1` [LBH-589] the “combination effect on inhibition” value (H460 cells [4]) was “additive to synergistic effects”.

For `NNCCc1ccc(NC(=O)/C=C/c2ccccc2)cc1` [compound 13], the kinact (GST-LSD1 [1]) was 0.00283 s⁻¹ and the kinact/KI (GST-LSD1 [1]) was 28300 M⁻¹ s⁻¹.

In the case of `NNCCOc1ccccc1` [10a], the KI (inactivation) (GST-LSD1 [1]) is reported as 44 ± 9.7 µM, the kinact (GST-LSD1 [1]) is reported as 0.0025 s⁻¹ and the kinact/KI (GST-LSD1 [1]) is reported as 56.7 M⁻¹ s⁻¹.

With `NNCCCCc1ccccc1` [9h] the KI (inactivation) (GST-LSD1 [1]) was 22 ± 3 µM, the kinact (GST-LSD1 [1]) was 0.002 s⁻¹ and the kinact/KI (GST-LSD1 [1]) was 91.7 M⁻¹ s⁻¹.

Work on `NNCCc1ccc(N(Cc2ccccc2)C(=O)CCCc2ccccc2)cc1` [12m] yielded a kinact (GST-LSD1 [1]) of 0.00367 s⁻¹, a KI (inactivation) (GST-LSD1 [1]; [7]) of 1.6 ± 0.49 µM and a kinact/KI (GST-LSD1 [1]) of 2330 M⁻¹ s⁻¹.

With `CC(/C=C/C(=O)NO)=C\[C@@H](C)C(=O)c1ccc(N(C)C)cc1` [TSA] the “combination effect on inhibition” value (H460 cells [4]) was “moderate antagonism” and the “combination index (CI)” value (H460 cells [4]) was greater than 1.

In the case of `NNCCc1ccc(NC(=O)CCc2ccccc2)cc1` [12c], the kinact (GST-LSD1 [1]) is reported as 0.004 s⁻¹ and the kinact/KI (GST-LSD1 [1]) is reported as 15300 M⁻¹ s⁻¹.

With `CN(C(=O)CCCc1ccccc1)c1ccc(CCNN)cc1.O=C(O)C(=O)O` [12l] the “H3K4Me2 changes (in words)” value (H3K4Me2 in LNCaP cells; 48 h, concentrations up to 10 µM) was “did not show changes in H3K4Me2”, the “fold weaker LSD1 inhibitor than bizine” value (GST-LSD1 [1]) was ~ 30 fold and the kinact (GST-LSD1 [1]) was 0.004 s⁻¹. The KI (inactivation) (GST-LSD1 [1]; [7]) was 2 ± 0.73 µM and the kinact/KI (GST-LSD1 [1]) was 2000 M⁻¹ s⁻¹.

For `NNCCc1ccccc1` [phenelzine, reference compound], the “reduction in 3H-thymidine incorporation” value (H460 cells [5]) is given as less than 50%, the “concentration needed to extinguish LSD1 activity under MassSQUIRM conditions” value (GST-LSD1 [6]) is given as “greater than 10 mM” and the “H3K4Me2 changes (in words)” value (H3K4Me2 in LNCaP cells; 48 h, concentrations up to 40 µM) is given as “did not induce H3K4Me2 changes”. For the same compound, the “LSD1 inhibition in MassSQUIRM assay (in words)” value (GST-LSD1 [2]) was “negligible impact on LSD1 inhibition”.

For `COc1ccc(CCCNN)cc1.Cl.Cl` [9e], the KI (inactivation) (GST-LSD1 [1]) was 8 ± 3.5 µM, the “LSD1 inhibitory action (in words)” value (GST-LSD1 [1]) was “made little difference” and the kinact (GST-LSD1 [1]) was 0.0025 s⁻¹. For the same compound, the kinact/KI (GST-LSD1 [1]) was 317 M⁻¹ s⁻¹.

With `NNCCc1ccc(NC(=O)c2ccccc2)cc1` [12a] the KI (inactivation) (GST-LSD1 [1]) was 0.28 ± 0.11 µM, the kinact (GST-LSD1 [1]) was 0.00317 s⁻¹ and the kinact/KI (GST-LSD1 [1]) was 11700 M⁻¹ s⁻¹.

Compound `NNCCc1ccc(NC(=O)CCCCc2ccccc2)cc1` [12e] has a kinact (GST-LSD1 [1]) of 0.00367 s⁻¹, a KI (inactivation) (GST-LSD1 [1]; [7]) of 0.26 ± 0.11 µM and a kinact/KI (GST-LSD1 [1]) of 14300 M⁻¹ s⁻¹.

In the case of `NNCCc1ccc(NC(=O)CCCc2ccc([N+](=O)[O-])cc2)cc1` [12i], the kinact (GST-LSD1 [1]) is reported as 0.0035 s⁻¹ and the kinact/KI (GST-LSD1 [1]) is reported as 12300 M⁻¹ s⁻¹.

For `CNNCCc1ccccc1.Cl.Cl` [9a], the “LSD1 inhibitory action (in words)” value (GST-LSD1 [1]) was “negated LSD1 inhibitory action”.

Work on `CNNCCCc1ccc(OC)cc1` [9f] yielded an IC50 (GST-LSD1 [1]) greater than 100 µM.

With `NNCCCN1CCOCC1` [compound 11] the IC50 (GST-LSD1 [1]) was greater than 100 µM and the “LSD1 inhibitory action (in words)” value (GST-LSD1 [1]) was “not compatible with LSD1 inhibition”.

For `Nc1ccccc1NC(=O)c1ccc(CNC(=O)OCc2cccnc2)cc1` [MS-275], the “combination effect on inhibition” value (H460 cells [4]) was “additive to synergistic effects”.

In the case of `NNCCc1ccc(NC(=O)CCc2c[nH]c3ccccc23)cc1` [15a], the kinact (GST-LSD1 [1]) is reported as 0.0035 s⁻¹ and the kinact/KI (GST-LSD1 [1]) is reported as 16700 M⁻¹ s⁻¹.

With `Nc1ncn([C@@H]2O[C@H](CO)[C@@H](O)[C@H]2O)c(=O)n1` [azacytidine] the “combination effect on inhibition” value (H460 cells [4]) was “moderate antagonism”.
